The source made the active and inactive calls. The rule behind the calls is not given here.
Columns and labels:
[1] = tested on: Rhynchophorus ferrugineus; test: Pesticidal activity against Rhynchophorus ferrugineus (red palm weevil) larvae assessed as mortality at 6 ppm, po at 18 hr post-treatment relative to control; format: functional
[2] = tested on: Rhynchophorus ferrugineus; test: Contact toxicity against Rhynchophorus ferrugineus (red palm weevil) adults assessed as time required for 100% mortality at 2.5 ml/l for 5 min; format: functional
[3] = tested on: Rhynchophorus ferrugineus; test: Pesticidal activity against Rhynchophorus ferrugineus (red palm weevil) cocoon assessed as mortality at 20 ppm administered by dipping for 3 min measured at 48 hr post-treatment relative to control; format: functional
[4] = tested on: Rhynchophorus ferrugineus; test: Pesticidal activity against adult Rhynchophorus ferrugineus (red palm weevil) assessed as mortality at 300 ppm administered topically at 18 hr post-treatment; format: functional
[5] = tested on: Rhynchophorus ferrugineus; test: Contact toxicity against Rhynchophorus ferrugineus (red palm weevil) adults assessed as time required for 100% reversible knockdown at 2.5 ml/l for 2 min; format: functional
[6] = tested on: Rhynchophorus ferrugineus; test: Pesticidal activity against adult Rhynchophorus ferrugineus (red palm weevil) assessed as mortality at 1 ppm, po at 114 hr post-treatment relative to control; format: functional
[7] = tested on: Rhynchophorus ferrugineus; test: Pesticidal activity against Rhynchophorus ferrugineus (red palm weevil) cocoons assessed as time required for total mortality at 1.5 ml/l administered by dipping for 10 secs; format: functional
[8] = tested on: Rhynchophorus ferrugineus; test: Pesticidal activity against adult Rhynchophorus ferrugineus (red palm weevil) assessed as mortality at 1 ppm, po at 48 hr post-treatment relative to control; format: functional
[9] = tested on: Rhynchophorus ferrugineus; test: Pesticidal activity against adult Rhynchophorus ferrugineus (red palm weevil) assessed as mortality at 1.5 ppm, po at 24 hr post-treatment relative to control; format: functional
[10] = tested on: Rhynchophorus ferrugineus; test: Pesticidal activity against Rhynchophorus ferrugineus (red palm weevil) larvae assessed as mortality at 2 ppm, po at 90 hr post-treatment relative to control; format: functional
[11] = tested on: Rhynchophorus ferrugineus; test: Pesticidal activity against adult Rhynchophorus ferrugineus (red palm weevil) assessed as mortality at 1.5 ppm, po at 90 hr post-treatment relative to control; format: functional
[12] = tested on: Rhynchophorus ferrugineus; test: Pesticidal activity against adult Rhynchophorus ferrugineus (red palm weevil) assessed as mortality at 0.5 ppm, po at 24 hr post-treatment relative to control; format: functional
[13] = tested on: Rhynchophorus ferrugineus; test: Pesticidal activity against adult Rhynchophorus ferrugineus (red palm weevil) assessed as mortality at 1000 ppm administered topically at 36 hr post-treatment; format: functional
[14] = tested on: Rhynchophorus ferrugineus; test: Pesticidal activity against Rhynchophorus ferrugineus (red palm weevil) cocoon assessed as mortality at 1.5 ppm administered by dipping for 3 min measured at 90 hr post-treatment relative to control; format: functional
[15] = tested on: Rhynchophorus ferrugineus; test: Pesticidal activity against Rhynchophorus ferrugineus (red palm weevil) cocoon assessed as mortality of emerged adult at low concentration administered by dipping for 3 min measured up to 1 week after emergence; format: functional, organism-based
[16] = tested on: Rhynchophorus ferrugineus; test: Pesticidal activity against Rhynchophorus ferrugineus (red palm weevil) larvae assessed as mortality at 4 ppm, po at 24 hr post-treatment relative to control; format: functional
[17] = tested on: Rhynchophorus ferrugineus; test: Pesticidal activity against adult Rhynchophorus ferrugineus (red palm weevil) assessed as time required for reversible knockdown at 2.5 ml/l administered topically; format: functional
[18] = tested on: Rhynchophorus ferrugineus; test: Pesticidal activity against Rhynchophorus ferrugineus (red palm weevil) cocoon assessed as mortality at 0.5 ppm administered by dipping for 3 min measured at 72 hr post-treatment relative to control; format: functional
[19] = tested on: Rhynchophorus ferrugineus; test: Pesticidal activity against Rhynchophorus ferrugineus (red palm weevil) cocoon assessed as mortality at 0.5 ppm administered by dipping for 3 min measured at 24 hr post-treatment relative to control; format: functional
[20] = tested on: Rhynchophorus ferrugineus; test: Contact toxicity against Rhynchophorus ferrugineus (red palm weevil) adults assessed as time required for 100% mortality at 3.5 ml/l for 2 min; format: functional
[21] = tested on: Rhynchophorus ferrugineus; test: Pesticidal activity against Rhynchophorus ferrugineus (red palm weevil) cocoons assessed as time required for total mortality at 3.5 ml/l administered by dipping for 5 secs; format: functional
[22] = tested on: Rhynchophorus ferrugineus; test: Pesticidal activity against Rhynchophorus ferrugineus (red palm weevil) cocoon assessed as mortality at 2 ppm administered by dipping for 3 min measured at 114 hr post-treatment relative to control; format: functional
[23] = tested on: Rhynchophorus ferrugineus; test: Contact toxicity against Rhynchophorus ferrugineus (red palm weevil) adults assessed as time required for 50% reversible knockdown at 3.5 ml/l for 2 min; format: functional
[24] = tested on: Rhynchophorus ferrugineus; test: Pesticidal activity Rhynchophorus ferrugineus (red palm weevil) larvae assessed as time required after hatching for 100% mortality at 1.5 ml/l administered topically measured up to 14 days relative to control; format: functional
[25] = tested on: Rhynchophorus ferrugineus; test: Contact toxicity against Rhynchophorus ferrugineus (red palm weevil) adults assessed as time required for 50% reversible knockdown at 2.5 ml/l for 5 min; format: functional
[26] = tested on: Rhynchophorus ferrugineus; test: Pesticidal activity against adult Rhynchophorus ferrugineus (red palm weevil) assessed as time required for 100% mortality at 1.5 ml/l administered topically; format: functional
[27] = tested on: Rhynchophorus ferrugineus; test: Pesticidal activity against Rhynchophorus ferrugineus (red palm weevil) larvae assessed as mortality at 1.5 ppm, po at 24 hr post-treatment relative to control; format: functional
[28] = tested on: Rhynchophorus ferrugineus; test: Pesticidal activity against adult Rhynchophorus ferrugineus (red palm weevil) assessed as mortality at 1.5 ppm, po at 18 hr post-treatment relative to control; format: functional
[29] = tested on: Rhynchophorus ferrugineus; test: Contact toxicity against Rhynchophorus ferrugineus (red palm weevil) adults assessed as time required for 50% mortality at 1.5 ml/l for 5 min; format: functional
[30] = tested on: Rhynchophorus ferrugineus; test: Pesticidal activity against adult Rhynchophorus ferrugineus (red palm weevil) assessed as mortality at 300 ppm administered topically at 72 hr post-treatment; format: functional
[31] = tested on: Rhynchophorus ferrugineus; test: Pesticidal activity against adult Rhynchophorus ferrugineus (red palm weevil) assessed as time required for 100% mortality at 3.5 ml/l administered topically; format: functional
[32] = tested on: Rhynchophorus ferrugineus; test: Pesticidal activity against Rhynchophorus ferrugineus (red palm weevil) cocoon assessed as mortality at 4 ppm administered by dipping for 3 min measured at 18 hr post-treatment relative to control; format: functional
[33] = tested on: Rhynchophorus ferrugineus; test: Pesticidal activity against adult Rhynchophorus ferrugineus (red palm weevil) assessed as mortality at 2 ppm, po at 114 hr post-treatment relative to control; format: functional
[34] = tested on: Rhynchophorus ferrugineus; test: Contact toxicity against Rhynchophorus ferrugineus (red palm weevil) adults assessed as time required for 50% reversible knockdown at 3.5 ml/l for 5 min; format: functional
[35] = tested on: Rhynchophorus ferrugineus; test: Pesticidal activity against adult Rhynchophorus ferrugineus (red palm weevil) assessed as mortality at 0.5 ppm, po at 48 hr post-treatment relative to control; format: functional
[36] = tested on: Rhynchophorus ferrugineus; test: Contact toxicity against Rhynchophorus ferrugineus (red palm weevil) adults assessed as time required for 100% reversible knockdown at 3.5 ml/l for 2 min; format: functional
[37] = tested on: Rhynchophorus ferrugineus; test: Pesticidal activity against Rhynchophorus ferrugineus (red palm weevil) larvae assessed as mortality at 500 ppm administered topically at 36 hr post-treatment; format: functional
[38] = tested on: Rhynchophorus ferrugineus; test: Pesticidal activity against Rhynchophorus ferrugineus (red palm weevil) cocoon assessed as mortality at 1.5 ppm administered by dipping for 3 min measured at 24 hr post-treatment relative to control; format: functional
[39] = tested on: Rhynchophorus ferrugineus; test: Pesticidal activity against Rhynchophorus ferrugineus (red palm weevil) larvae assessed as mortality at 0.5 ppm, po at 72 hr post-treatment relative to control; format: functional
[40] = tested on: Rhynchophorus ferrugineus; test: Pesticidal activity against Rhynchophorus ferrugineus (red palm weevil) larvae assessed as mortality at 300 ppm administered topically at 48 hr post-treatment; format: functional
[41] = tested on: Rhynchophorus ferrugineus; test: Pesticidal activity against Rhynchophorus ferrugineus (red palm weevil) cocoon assessed as mortality at 4 ppm administered by dipping for 3 min measured at 72 hr post-treatment relative to control; format: functional
[42] = tested on: Rhynchophorus ferrugineus; test: Contact toxicity against Rhynchophorus ferrugineus (red palm weevil) adults assessed as time required for 50% mortality at 1.5 ml/l for 2 min; format: functional

O=[N+]([O-])/N=C1\NCCN1Cc1ccc(Cl)nc1 [IMIDACLOPRID]
Activity [1]: 100%
Time [2]: 7.2 days
Activity [3]: 44.4%
Activity [4]: 72.2%
Time [5]: 7.1 days
Activity [6]: 72.2%
Time [7]: 10 days
Activity [8]: 38.9%
Activity [9]: 72.2%
Activity [10]: 100%
Activity [11]: 100%
Activity [12]: 0%
Activity [13]: 100%
Activity [14]: 44.4%
Activity [15]: inactive
Activity [16]: 100%
Time [17]: 2 days
Activity [18]: 0%
Activity [19]: 0%
Time [20]: 8.1 days
Time [21]: 5.9 days
Activity [22]: 72.2%
Time [23]: 1.1 days
Time [24]: 6 days
Time [25]: 1.1 days
Time [26]: 11.5 days
Activity [27]: 100%
Activity [28]: 72.2%
Time [29]: 4.3 days
Activity [30]: 100%
Time [31]: 6.1 days
Activity [32]: 0%
Activity [33]: 100%
Time [34]: 1.1 days
Activity [35]: 38.9%
Time [36]: 3.2 days
Activity [37]: 38.9%
Activity [38]: 0%
Activity [39]: 38.9%
Activity [40]: 0%
Activity [41]: 44.4%
Time [42]: 10.1 days

— ChEMBL document CHEMBL3046274, “Toxicity of imidacloprid to developmental stages of Rhynchophorus ferrugineus (Curculionidae: Coleoptera): Laboratory and field tests” (Crop Prot, 2006)
